Data on one molecule can be found in US20050238580A1 (priority 2002, published 2005).

Holding throughout (assay type): in vivo
For series [1], the target named is T1, intestinal lactase (Homo sapiens, UniProt P09848).
T1 construct: from tissue; host or cells: small-intestinal mucous membrane of living adult human volunteers (in vivo)
The series is described as follows: Xylose in urine of human volunteers after oral 4-galactosyl-xylose, evaluated by gas chromatography. As to conditions: 0.25 g oral. An excerpt:
Excretion of xylose in urine after administration of 0.25 g of 4-galactose-xylose to subjects with lactose tolerance, and its reduction in hypolactasic individuals with lactose intolerance is likewise observed by the evaluation technique of xylose different from the colorimetric reaction with fluoroglucinol. This has been shown by administering 0.25 g of 4-galactosyl-xylose to a volunteer with lactose tolerance [individual 1 (also studied in Example 3), Example 15] on one hand, and on the other hand, to a volunteer with lactose intolerance having an intense intestinal lactase deficiency [individual 12 (also studied in Example 12), Example 16], and evaluating xylose by gas chromatography in the total urine collected 3 hours after the intake of the disaccharide with a chromatograph equipped with a flame ionization detector and a 12 m long glass spiral column with an inside diameter of 0.2 mm and a thickness of 0.3 μm. The presence of xylose in urine was detected in its trimethylsilyl derivative form. For this purpose the urine sample was lyophilized and dissolved in 20 μl of pyridine containing 1 mM of benzyl-β-D-xylopyranoside as an internal reference. Then another 20 μl of N-trimethylsilyl imidazole were added as a sililating agent. The mixture was treated with ultrasound for one minute and heated at 60° C. for 30 minutes. Then 1-2 μl of the sample was injected into the gas chromatograph. The temperature of the injector and the detector used was 250° C. and the temperature gradient in the column was the following: 2 minutes at 180° C. and a 5° C. increase per minute until 250° C. was reached. This temperature was maintained for 15 minutes. The concentration of xylose in each sample was calculated from the areas of the peaks corresponding to the chromatograms. The results of these experiments are compiled in FIG. 7, wherein the chromatograms corresponding to the samples of basal urine and of urine taken during 3 hours from an individual with lactose tolerance and an individual with lactose intolerance are shown. […]

The target in series [2] is T1, intestinal lactase. The series is described as follows: Xylose in blood plasma of human volunteers after oral 4-galactosyl-xylose, colorimetric titration with fluoroglucinol. On the procedure: Oral administration of 3 g of 4-galactosyl-xylose to adult human volunteers with lactose tolerance gave rise to the gradual presence of xylose in blood plasma titrated calorimetrically with fluoroglucinol, that reached a maximum about 2 hours after the intake of the disaccharide. Oral administration of the same amount of 4-galactosyl-xylose to an adult human volunteer with lactose intolerance diagnosed as hypolactasic produced a significant reduction in the amount of xylose evaluated in blood plasma of this individual two hours after the intake of the disaccharide.
The evaluation of xylose in blood after the oral administration of 4-galactosyl-xylose permits non-invasive diagnosis of intestinal lactase deficiency. This has been shown by administering 3 g of 4-galactosyl-xylose to two volunteers with lactose tolerance [individual 1, Example 17 and individual 2, Example 18 (these individuals were also studied in Examples 3 to 6)] and to the hypolactasic individual 12 with lactose intolerance [Example 19 (this individual was also studied in examples 12 and 15]). Xylose was titrated colorimetrically with fluoroglucinol in blood plasma of blood samples obtained from these individuals prior to the intake of the disaccharide and after the intake thereof at approximately 1 hour intervals for 6 hours: in the hypolactasic individual a basal blood sample and another blood sample 2 hours after the intake of the 4-galactosyl-xylose disaccharide were taken. […] In view of the amount of xylose detected in the individual with lactose intolerance 2 hours after the intake of 4-galactosyl-xylose, 0.48 μg/100 μl of plasma and the sensitivity of the titration (minimum detection limit of xylose with fluoroglucinol of […]), the minimum volume of serum or plasma to reliably make the measurement is estimated to be 50 μl, which is equivalent to 0.2 ml of blood (2 to 3 drops).

The nature of series [3]: Gastrointestinal tolerability of the oral intake of 4-galactosyl-xylose in adult human volunteers.

T1 sequence (P09848 869-1927): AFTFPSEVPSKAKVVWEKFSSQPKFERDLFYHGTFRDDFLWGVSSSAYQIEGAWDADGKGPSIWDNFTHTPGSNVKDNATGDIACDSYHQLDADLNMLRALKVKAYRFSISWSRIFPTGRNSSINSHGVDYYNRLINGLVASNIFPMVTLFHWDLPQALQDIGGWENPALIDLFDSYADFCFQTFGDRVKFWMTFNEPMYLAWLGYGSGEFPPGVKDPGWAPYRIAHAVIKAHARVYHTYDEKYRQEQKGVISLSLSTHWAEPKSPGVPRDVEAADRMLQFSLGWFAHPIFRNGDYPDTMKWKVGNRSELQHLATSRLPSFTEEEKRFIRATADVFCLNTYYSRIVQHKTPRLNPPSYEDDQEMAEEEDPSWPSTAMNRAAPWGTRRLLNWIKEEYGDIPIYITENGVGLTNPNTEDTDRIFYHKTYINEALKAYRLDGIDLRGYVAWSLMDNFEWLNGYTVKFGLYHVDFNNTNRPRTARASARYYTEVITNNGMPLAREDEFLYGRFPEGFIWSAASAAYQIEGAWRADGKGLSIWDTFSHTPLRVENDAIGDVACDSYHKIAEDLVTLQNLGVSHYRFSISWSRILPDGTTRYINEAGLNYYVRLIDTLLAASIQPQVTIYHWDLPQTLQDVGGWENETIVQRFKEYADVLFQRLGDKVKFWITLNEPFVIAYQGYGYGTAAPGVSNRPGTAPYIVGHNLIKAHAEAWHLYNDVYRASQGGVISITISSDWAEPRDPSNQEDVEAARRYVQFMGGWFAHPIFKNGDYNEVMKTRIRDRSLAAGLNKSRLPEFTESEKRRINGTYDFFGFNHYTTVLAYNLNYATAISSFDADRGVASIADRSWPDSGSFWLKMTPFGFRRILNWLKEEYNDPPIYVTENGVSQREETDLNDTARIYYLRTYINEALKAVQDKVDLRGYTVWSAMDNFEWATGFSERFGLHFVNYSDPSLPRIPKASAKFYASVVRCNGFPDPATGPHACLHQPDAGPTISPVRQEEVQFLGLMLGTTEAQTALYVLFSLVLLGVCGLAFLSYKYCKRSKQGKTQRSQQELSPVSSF

Regarding `OCC1O[C@@H](O[C@@H]2COC(O)C(O)[C@H]2O)C(O)[C@@H](O)[C@H]1O` (stereo partly drawn), the “reduction of xylose in urine, individual 12 versus individual 1” value in series [1] (urine of 3 hours) stood at 92%. Also, the “total amount of xylose in urine of 3 hours” value in series [1] (hypolactasic individual 12 with lactose intolerance) was 2.1 mg. Moreover, the “total xylose in urine of 3 hours” value in series [1] (individual 1 with lactose tolerance) is given as 25.2 mg. Besides, the “reduction of xylose in plasma, individual 12 versus individual 1” value in series [2] (3 g oral, 2 hours) is listed as 72%. Also, the “reduction of xylose in plasma, individual 12 versus individual 2” value in series [2] (3 g oral, 2 hours) was 75%. The “xylose in blood plasma 2 hours after intake” value in series [2] (hypolactasic individual 12, 3 g oral) is 0.48 μg/100 μl of plasma. The “xylose in blood plasma in a similar period of time (2 hours)” value is reported as 1.72 μg/100 ml of plasma in series [2] (individual 1 with lactose tolerance, 3 g oral) and 1.95 μg/100 ml of plasma in series [2] (individual 2 with lactose tolerance, 3 g oral). For the same molecule, the “xylose in blood plasma after 6 hours” value in series [2] (individuals 1 and 2 with lactose tolerance, 3 g oral) is “undetectable”. In addition, the “gastrointestinal discomfort or disorders” value is listed as “did not cause any gastrointestinal discomfort or disorder” in series [3] (8 adult volunteers with lactose tolerance, 0.25 g oral); “did not cause any gastrointestinal discomfort or disorders” in series [3] (individual 1 with lactose tolerance, 1 g oral); “did not result in any gastrointestinal discomfort or disorder” in series [3] (individual 12 with lactose intolerance and two individuals with lactose tolerance, 3 g oral); “did not cause any gastrointestinal discomfort or disorder” in series [3] (individual 13, allergy to milk components, 0.25 g oral); “did not cause any gastrointestinal discomfort or any disorder” in series [3] (individuals 1 and 2 with lactose tolerance, 0.25 g, 0.5 g and 3 g oral); “did not cause any gastrointestinal discomfort or disorders” in series [3] (individuals 12 and 5 with lactose intolerance, 0.25 g oral).
